Where no end group is shown, it is not given here. 5‑FAM = 5-carboxyfluorescein
How the values were obtained:
[1] = Solubility in the NMR buffer; type: physicochemical; details: 1 mM in 50 mM HEPES pH 7.5, 150 mM KCl NMR buffer
Experimental: The binding of the ChemBridge screen hits to PHD1 was further evaluated using 2D ^1H–^15N HSQC NMR spectroscopy. This direct binding method allowed us to monitor binding by observing any ligand-induced changes in the previously assigned ^1H–^15N PHD1 amino acid resonances.[12] The HSQC spectra of 50 μM ^15N-labeled PHD1 with DMSO were overlaid with the spectra of the ^15N-labeled PHD1 incubated with 1 mM compound. […] Compound 715 958 was insoluble in the NMR buffer at this concentration and was not evaluated.
The six NCI screen hits confirmed by dose response in the FP assay were further evaluated by 2D ^1H–^15N HSQC NMR at 1 mM to assess their direct binding to PHD1 (Fig. S5, ESI ^†). Compound 990 670 was insoluble in the NMR buffer and was excluded from further consideration. Out of the five compounds evaluated, 991 830, 990 856, and 988 385 caused very minor CSP on PHD1 (average shifts ≤ 0.002 ppm; Fig. S5a–c, ESI ^†). […] The observed perturbations are low, but in the range of those induced by competitive binding fragment ligands evaluated at 5 mM with the PHD finger of BAZ2B, for which the perturbations observed were up to 0.035 ppm.[19] Residue Cys322, one of the Zn(II) ligands in the first zinc finger in PHD1, is the most affected by the presence of oxazepine 516 969 (Δδ of 0.009 ppm; Fig. S5d, ESI ^†). […]

15N-labeled PHD1 (KDM5A) = molecular target: T1, 15N-labeled PHD1 (KDM5A) (Homo sapiens, UniProt P29375); test: 2D 1H-15N HSQC NMR binding assay; details: for perturbation of some residues: most perturbed residues
T1 construct: PHD1(S287-E344) construct; GST (N, cleaved yes); made in house; host or cells: E. coli BL21 (DE3), M9 minimal media with 15N ammonium chloride
T1 sequence (P29375 287-344): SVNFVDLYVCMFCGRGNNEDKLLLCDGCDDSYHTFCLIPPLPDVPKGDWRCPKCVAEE
Experimental: The binding of the ChemBridge screen hits to PHD1 was further evaluated using 2D ^1H–^15N HSQC NMR spectroscopy. This direct binding method allowed us to monitor binding by observing any ligand-induced changes in the previously assigned ^1H–^15N PHD1 amino acid resonances.[12] The HSQC spectra of 50 μM ^15N-labeled PHD1 with DMSO were overlaid with the spectra of the ^15N-labeled PHD1 incubated with 1 mM compound. […] Compound 715 958 was insoluble in the NMR buffer at this concentration and was not evaluated. […]
Nuclear magnetic resonance (NMR) binding assays
A PHD1(S287-E344) construct was used in NMR studies, as previously described.4 Briefly, the GST-PHD1 fusion construct was expressed in M9 minimal media containing 15N ammonium chloride. The labeled GST-PHD1 was purified and the GST tag was cleaved as described in the Expression of GST-PHD1(S287-E344) and GST tag removal section. For 2D 1H, 15N Fast HSQC (FHSQC) binding experiments, 50 μM 15N-labeled PHD1 was used and spectra were measured after the addition of DMSO-d6 or compound at 1 mM in DMSO-d6 for single concentration experiments. The NMR samples were prepared in 50 mM HEPES pH 7.5, 150 mM KCl buffer with 5 mM BME, 100 μM ZnCl2, and 10% D2O at a final concentration of 2.4% DMSO-d6. The HSQC spectra were collected on a 600 MHz Bruker Avance NEO spectrometer equipped with an actively shielded Z-gradient […] TCI cryoprobe using programs from the pulse program library (TopSpin 4.0.6). FHSQC acquisition parameters were: NS = 8, acquisition time = 0.106 s 1H, 0.060 s 15N. All experiments were carried out at 298 K (calibrated with 4% v/v MeOH […]
For 2D 1H, 15N FHSQC titration experiments, 50 μM 15N-labeled PHD1 was incubated with 0, 0.5, 1, 2, or 4 mM B2 sample with a final concentration of 2.9% DMSO-d6 for all samples. The NMR samples were prepared in 50 mM HEPES pH 7.5, 150 mM KCl buffer with 5 mM BME, 100 μM ZnCl2, and 5% D2O. The 2D 15N FHSQC spectra for the titration series were recorded at 298 K on a Bruker 800 MHz AVANCE-I spectrometer equipped with an actively shielded Z-gradient TCI cryoprobe using programs from the pulse program library (TopSpin 4.0.8). FHSQC acquisition parameters were: NS = 8, acquisition time = 0.082 s 1H, 0.045s 15N. The analysis of the chemical shift perturbation of the amide cross-peaks during the titration with the ligand was performed using CCPNMR Analysis software and use PHD1 with 2.9% DMSO-d6 as the reference.7 Apo PHD1 backbone assignments were imported from the BMRB (entry 30808).4 The chemical shift perturbations for all the NMR experiments were calculated in CCPNMR v3.2, which uses the following equation:
∆ chemical shift = ∆H2 + 0.15(∆N)2

[2] = molecular target: T2, GST-PHD1 (PHD1 finger of KDM5A) (Homo sapiens, UniProt P29375); test: Competitive-binding fluorescence polarization (FP) assay, displacement of 5-FAM H3K4me0 10-mer from GST-PHD1; details: for inhibition at 1000 µM: read-out: %I at 1 mM; for IC50: FP concentration-response, HTS assay conditions, read-out: approximate IC50
T2 construct: GST-PHD1(S287-E344); made in house; host or cells: E. coli BL21 (DE3), pET41a
T2 sequence (P29375 287-344): T1 sequence (P29375 287-344)
Excerpt: Fluorescence polarization (FP) has been widely used as a biophysical method to detect and quantify disruptions in protein–protein and protein–peptide interactions.[33,34] It served as the primary assay in the high-throughput screening (HTS) campaign to identify ligands for the PHD1 finger (Fig. 1b). The FP assay includes a GST-labeled […] construct and its H3K4me0 10-mer peptide substrate (Fig. 1c and d).[21,22] […]
Fig. 2 Dose-dependent inhibition of GST-PHD1 − H3 tail interaction by screen hits obtained from HTS of the NCI collection. […] DMSO is used as the negative (−) control (0% inhibition).
Fluorescence polarization high-throughput screening
To test the activity of purified GST-PHD1(S287-E344), direct-binding and competitive-binding fluorescence polarization (FP) were done, as previously described.3,4 For screening, GST-PHD1(S287-E344) was diluted in buffer (50 mM HEPES, pH 7.5, 50 mM KCl, 0.01% Tween-20, 1 mM TCEP) with 20 nM 5-carboxyfluorescein-labeled H3 10-mer peptide and with or without 0.1% bovine gamma globulin (BGG). This was treated as the assay buffer (with 0.1% BGG) and also as the negative control. For the positive control, 120 μM unlabeled H3K4 10-mer peptide was added to the assay buffer. The assay buffer was dispensed using the EL406 Biotek liquid dispenser onto black, round-bottom low volumes 384-microwell plates (Corning 4514) to a final volume of 10 μL per well. DMSO (10 nL or 50 nL) or screening compounds at 10 nL (ChemBridge Premium Diversity collection at 10 μM final) or 50 nL (ML fragments and NCI libraries at 50 μM final) was added to plates containing the assay buffer using the BioMek liquid handler/dispenser. The final DMSO in the samples was either 0.1% or 0.5%. Fluorescence polarization measurements were performed directly and after 45 minutes of incubation at room temperature using a Perkin Elmer Envision and XCite 2105 multimode microplate reader equipped with a stacker. Excitation light was delivered with a xenon flash lamp at 480/30 nm (BW) and emission was collected after passing through an emission filter (535/25 nm). For fluorescence polarization experiments, two 535/40 nm filters (S, P) and dual dichroic D505/D535 nm mirrors were used.
For FP-based assay optimization, the assay signal dynamic range was evaluated using the negative and positive control buffers with varying amounts of GST-PHD1 (0.5, 1, 1.5, or 2 μM) in the presence or absence of 0.1% BGG. For each condition, buffer was dispensed into 3 columns of a 384-well plate (48 wells each) using the BioMek liquid dispenser and the FP signal was recorded. The Z′ value reports on the assay robustness by reflecting both the dynamic range and the data variation associated with assay measurements.5 The Z′ value is given by the following equation: […]
where σ represents the standard deviation, PC represents the positive control, NC represents the negative control, and μ represents the mean value of the FP signal.
Screen results were analyzed using the UCSF SMDC web application called HiTS […]
(http://smdc.ucsf.edu/hits/). […]
equal to 3 standard deviations of the mean percent inhibition values, where the negative control is set to 0% inhibition and the positive control is set to 100% inhibition. Cheminformatics analysis on the screen hits was done using DataWarrior, an open-source program for data visualization and analysis with chemical intelligence.6 The Tanimoto coefficient was used to gauge the similarity and diversity of screen hits and cluster any compounds with greater than 75% similarity.
Screen hits were repurchased when available. Structurally similar derivatives were purchased when exact compounds were not available for purchase. Compound purity was confirmed by LCMS. All compounds were dissolved in DMSO-d6 to a final concentration of 40 mM unless otherwise specified. All putative screen hits were confirmed in dose-response using the competitive binding fluorescence polarization […]
assay. […]

[3] = molecular target: GST-labeled PHD1(S283-E344) construct of KDM5A; test: fluorescence polarisation; direct binding of C-terminal 5-FAM H3 10-mer peptide to GST-PHD1; triplicate measurements
[4] = molecular target: GST-labeled PHD1(S283-E344) construct of KDM5A (two Zn(II) ions bound (PHD zinc finger)); test: fluorescence polarisation; competitive displacement of 5-FAM H3 10-mer (10 nM) from GST-PHD1 (2 μM) by unlabeled H3 10-mer peptide; triplicate measurements; details: both partners purified
[5] = 1 mM compound, quadruplicate (n = 1 for R1 = OBn; n = 2 for R1 = Me)

For `Cc1ccc(N2CC(c3nnc(NC(=O)c4c(-c5ccccc5)noc4C)s3)CC2=O)cc1C` (stereo not drawn) [990 670], which “solubility in the NMR buffer” value [1] is on record?
Its value is “insoluble”.

Which “average shifts (CSP on PHD1)” value (15N-labeled PHD1 (KDM5A); 50 μM 15N PHD1, 1 mM compound) does the source give for `O=C(C1CC1)N1CCc2sc(S(=O)(=O)Nc3cccc(Cl)c3F)cc2C1` [990 856] here?
Its value is ≤ 0.002 ppm.

With `Cc1c(CCC(=O)N2CCCC2C(=O)O)c(=O)oc2c(C)c(O)ccc12` (stereo not drawn) [991 830] as the molecule, how does the “average shifts (CSP on PHD1)” value (15N-labeled PHD1 (KDM5A); 50 μM 15N PHD1, 1 mM compound) read?
Its value is ≤ 0.002 ppm.

Which inhibition at 1000 µM [2, 5] does the source give for `Cc1oc2ccc(NS(=O)(=O)c3ccc(C(=O)O)cc3)cc2c1C(=O)OCc1ccccc1` [990 099] here?
The inhibition at 1000 µM was 45%.

What about the IC50 [2] of the same molecule?
The IC50 was > 1500 µM.

And the “average shifts (CSP on PHD1)” value (15N-labeled PHD1 (KDM5A); 50 μM 15N PHD1, 1 mM compound)?
Its value is 0.0025–0.0033 ppm.

And the “perturbation of some residues” value (15N-labeled PHD1 (KDM5A); 50 μM 15N PHD1, 1 mM compound)?
Its value is “greater than 0.008 ppm”.

Which “%I at 1 mM” value [2, 5] does the source give for `CC(=O)c1c(C)oc2ccc(NS(=O)(=O)c3cccc(C(=O)O)c3)cc12` [Compound B2, 3-(N-(3-acetyl-2-methylbenzofuran-5-yl)sulfamoyl)benzoic acid] here?
Its value is 45%.

And the inhibition at 1000 µM [2, 5]?
Its inhibition at 1000 µM is 45%.

And the IC50 [2]?
Its IC50 is ~1300 µM.

And the “chemical shift perturbations on PHD1 in titration” value (15N-labeled PHD1 (KDM5A); B2 at 0.5, 1, 2 and 4 mM with 50 μM 15N PHD1)?
The value was “chemical shift perturbations are small”.

What does the source list for `CCc1nnc(NS(=O)(=O)c2ccc(NC(=O)c3ccc(OC)c(OC)c3)cc2)s1` [988 385]?
average shifts (CSP on PHD1) (15N-labeled PHD1 (KDM5A); 50 μM 15N PHD1, 1 mM compound): ≤ 0.002 ppm; Δδ of residue N304 (15N-labeled PHD1 (KDM5A); 50 μM 15N PHD1, 1 mM compound): > 0.01 ppm

Which “average shifts (CSP on PHD1)” value (15N-labeled PHD1 (KDM5A); 50 μM 15N PHD1, 1 mM compound) does the source give for `CSc1nnc2c(n1)OC(c1ccncc1)Nc1ccccc1-2` (stereo not drawn) [516 969] here?
The value was 0.0025–0.0033 ppm.

What about the “Δδ of residue Cys322” value (15N-labeled PHD1 (KDM5A); 50 μM 15N PHD1, 1 mM compound) of the same molecule?
Its value is 0.009 ppm.

And the “perturbation of some residues” value (15N-labeled PHD1 (KDM5A); 50 μM 15N PHD1, 1 mM compound)?
Its value is “greater than 0.008 ppm”.

With ARTKQTARKS-{5‑FAM} [C-terminal 5-FAM H3 10-mer peptide, P68431 2-11] as the molecule, how does the Kd [3] read?
The Kd was 0.95 µM.

B1: unlabeled H3 10-mer peptide (peptide, UniProt P68431 2-11, looked up)
peptide: ARTKQTARKS
notes: histone H3 N-terminal tail 10-mer with unmodified K4 (H3K4me0); also called unlabeled H3K4me0 10-mer; H3K4me0 10-mer peptide
With B1 as the molecule, how does the Ki [4] read?
The Ki was 0.95 ± 0.14 µM.

Source: publication PMC10915964, “Identifying ligands for the PHD1 finger of KDM5A through high-throughput screening†” (RSC Chemical Biology, 2023)
